This is an account of results in patent US5760240A, “Taxoid synthesis” (The Scripps Research Institute, priority 1995, dated 1998).

For data set [1], the system named is HT-29. Nature of the data set: Cytotoxicity against tumor cell lines: HT-29. The class given is cell-based. Conditions: Homo sapiens; cell line HT-29.
Data set [2] concerns Ovcar 3. Put plainly: Cytotoxicity against tumor cell lines: Ovcar 3. The format is cell-based. Conditions: Homo sapiens; cell line Ovcar 3.
Data set [3] has as its system UCLA-P3. Nature of the data set: Cytotoxicity against tumor cell lines: UCLA-P3. The format is cell-based. Conditions: Homo sapiens, UCLA P-3; cell line UCLA-P3.
Data set [4] deals with L-1210. Nature of the data set: Cytotoxicity against tumor cell lines: L-1210. The conditions noted are these: Mus musculus, L1210; cell line L-1210. The class given is cell-based.
The subject of data set [5] is 786-0. Put plainly: Cytotoxicity against tumor cell lines: 786-0. The format is cell-based. The conditions noted are these: Homo sapiens; cell line 786-0.
Data set [6] concerns SK-Mel-28. Nature of the data set: Cytotoxicity against tumor cell lines: SK-Mel-28. The format is cell-based. Conditions: Homo sapiens; cell line SK-Mel-28.
The test system of data set [7] is SK-NH-SH. Nature of the data set: Cytotoxicity against tumor cell lines: SK-NH-SH. The class given is cell-based. Conditions: cell line SK-NH-SH.
Data set [8] relates to BT-549. Nature of the data set: Cytotoxicity against tumor cell lines: BT-549. The format is cell-based. Conditions: Homo sapiens; cell line BT-549.
Data set [9] has as its system A-549. Nature of the data set: Cytotoxicity against tumor cell lines: A-549. Conditions: Homo sapiens, A549; cell line A-549. The class given is cell-based.
Data set [10] deals with SIH-A. Put plainly: Cytotoxicity against tumor cell lines: SIH-A. The class given is cell-based. Conditions: Homo sapiens, SiHa; cell line SIH-A.
Data set [11] deals with a variety of tumor cell lines. Nature of the data set: Cytotoxicity against a variety of tumor cell lines (in words). The conditions noted are these: 15 and 15' under the same conditions.

The structures appear in SMILES notation.

As a reminder, the IC50 is the concentration that inhibits the measured activity by half. Regarding `CC(=O)O[C@H]1C(=O)[C@@]2(C)[C@H]([C@H](OC(=O)c3ccccc3)[C@]3(O)C[C@H](OC(=O)[C@H](O)[C@@H](NC(=O)c4ccccc4)c4ccccc4)C(C)=C1C3(C)C)[C@]1(OC(C)=O)CO[C@@H]1C[C@@H]2O` [Taxol, reference compound], the IC50 in data set [1] is 51 nM; in data set [2] it was 0.62 nM; in [3], 6.4 nM; in data set [4], 7 nM; in data set [5], 2200 nM; in data set [6], 120 nM. Further, the values for the IC50 in data set [7] and in [8] were 0.62 nM and 0.5 nM, respectively.

In the case of `CC(=O)O[C@@H]1C2=C(C)[C@@H](OC(=O)[C@H](O)[C@@H](NC(=O)c3ccccc3)c3ccccc3)C[C@@](O)([C@@H](OC(=O)c3ccccc3)c3ccccc3[C@H]1OC(C)=O)C2(C)C` [Compound 15], the IC50 in [1] was 129 nM; in data set [2] it was 280 nM; in [3], 296 nM; in data set [9], 645 nM; in [4], 1110 nM; in data set [10] it was 1290 nM. In addition, the IC50 came out at 1930 nM in [5], 2710 nM in data set [6], 4910 nM in data set [7] and 5300 nM in data set [8]. Further, the results for the “cytotoxicity against a variety of tumor cell lines” value in data set [11] and in data set [11] (listed as 15') were “significant cytotoxicity” and “essentially no cytotoxicity”, respectively.
